A short description of data set [1]: Dynamic vapor sorption (DVS) analysis. It counts as physicochemical. The conditions noted are these: between about 2 to about 92% relative humidity (RH) at 25° C. The method, then:
Dynamic vapor sorption (DVS) analysis was performed using a DVS Intrinsic 1. The sample (25 mg) was loaded into a sample pan, suspended from a microbalance and exposed to a humidified stream of nitrogen gas. The sample was held for a minimum of 5 min at each level and only progressed to the next humidity level if there was <0.002% change in weight between measurements (interval: 60 seconds) or 240 min had elapsed.

Data set [2] is classed as physicochemical. As to the method: Crystalline, Form W material of (S)-12-fluoro-4-(2-methylpyridin-3-yl)-7a,8,13,14-tetrahydro-7H-[1,2,4]triazolo[4′,3′:1,6]pyrido[3,2-b]benzofuro[4,3-fg][1,4]oxazonine, free base, was prepared as follows. About 2.5 mg of (S)-12-fluoro-4-(2-methylpyridin-3-yl)-7a,8,13,14-tetrahydro-7H-[1,2,4]triazolo[4′,3′:1,6]pyrido[3,2-b]benzofuro[4,3-fg][1,4]oxazonine, maleic acid salt (Form 7-A), was loaded into a vial. 1 mL of water was added, and the mixture was warmed to 37° C. Additional water was added to the slurry, which thinned considerably and then appeared to start precipitating a fine white solid. This was viewed as likely disproportionation and additional water was not added. The mixture was stirred overnight, and the following day the fine solid suspended in the solution was collected and analyzed by XRPD. It was observed that the maleic acid salt had disproportionated over the slurry time.

Data set [3] is described as follows: Salt screening: XRPD form after exposure to 95%+ relative humidity for one day. It counts as physicochemical. Details: key: Am = amorphous. Particulars: solid dried under vacuum at 50° C., then 95%+ relative humidity for one day. As to the method: A stock solution of Form P material of (S)-12-fluoro-4-(2-methylpyridin-3-yl)-7a,8,13,14-tetrahydro-7H-[1,2,4]triazolo[4′,3′:1,6]pyrido[3,2-b]benzofuro[4,3-fg][1,4]oxazonine, free base, was prepared in 2,2,2-trifluoroethanol (50.8 mg/mL). Stock solutions of counter ion were prepared in EtOH.
Salt formation was carried out at room temperature in 2 mL vials. 25.4 mg of Form P free base material (500 μL stock solution) and 1.1 equivalents of counter ion were added to each vial. Solvent was allowed to evaporate at 40° C. overnight with stirring. […] These vials were kept on the hotplate to continue evaporating (temperature increased to 50° C.), while the more-dry samples were dried further under vacuum for 3 hours at 50° C. The samples still containing solvent at the end of the day were left to stir at 30° C. over the weekend to finish evaporating the solvent. These samples were dried further under vacuum for 3 hours at 50° C.
Approximately 20 volumes of solvent (0.5 mL) was added to each vial containing the dried solids. The three solvents selected were EtOH, EtOAc, and IPA:water (9:1 vol). Once solvents were added, the mixtures (or solutions) were stirred at room temperature. When slurries were formed, the solids were filtered for XRPD analysis.
XRPD analysis was done in three stages. XRPD of the wet cake was done for all collected samples. […]

Data set [4] is described as follows: Wet-milling study (ball mill, 30 s, 1 vol. water). The conditions noted are these: milled with 1 vol. water. It counts as physicochemical.
A short description of data set [5]: physchem. It counts as physicochemical. Particulars: organic solvent or mixture, thermodynamic from solid. The method, then: Crystalline, Form V material of (S)-12-fluoro-4-(2-methylpyridin-3-yl)-7a,8,13,14-tetrahydro-7H-[1,2,4]triazolo[4′,3′:1,6]pyrido[3,2-b]benzofuro[4,3-fg][1,4]oxazonine, free base, was prepared as follows. About 12 mg of Form P material was loaded into a 2 mL vial. […] The solution was stirred overnight and the next day a slurry was observed. The slurry solids were collected and analyzed by XRPD.

Data set [6] can be described thus: physchem. Particulars: 70 °C, organic solvent or mixture, thermodynamic from solid.
Method: (§1) An abbreviated polymorph/solvate screen and approximate solubility determination were performed utilizing each class III solvent and several class II solvents as listed under ICH Guidelines Q3C. […] Form P was chosen as the target polymorph for crystallization.
Data set [7] can be described thus: physchem. The conditions noted are these: organic solvent or mixture, thermodynamic from solid.
Method: as §1
Data set [8] can be described thus: Particle size distribution (PSD). It counts as physicochemical. As to the method: Several other Experiments (Experiment 2, Experiment 3, Experiment 4, Experiment 5, Experiment 7, and Experiment 8) were performed to study the effect of seed loading, seed size and scale on particle size of final product.
The material as received was characterized by X-Ray Powder Diffraction (XRPD), Polarized Light Microscopy (PLM), Particle Size Distribution (PSD), Thermo-Gravimetric Analysis (TGA) and Differential Scanning Calorimetry (DSC).
In the second batch, crystals with rod morphology and a length of greater than 200 μm were observed. Two final scaled up batches were performed. A 43 gram batch was produced as small seeds and a 22 gram batch was produced using the first 10 gram batch (Crystallization 1) as large seeds to assess the impact of different size seeds on the process. Scanning electron microscopy (SEM) was used to compliment the polarized light microscope (PLM) and particle size distribution (PSD) measurements.

The conditions of data set [9]: 24 h.
Method: as §1
The mark [10] stands for this setting: Crystallization 1, 10 gram scale, milled Form P as seeds.
Where [11] appears, read: Crystallization 2, 10 gram scale, crystals from Crystallization 1 as seeds.
[12] abbreviates: Experiment 1, initial process, 0.5 w/w % seed.
Where [13] appears, read: Experiment 2, effect of seed loading, 0.5 w/w % milled seed.
The mark [14] stands for this setting: Experiment 3, effect of seed loading, 3.0 w/w % milled seed.
[15] abbreviates: Experiment 4, effect of seed size, 1.0 w/w % large seed.
The mark [16] stands for this setting: Experiment 5, effect of seed size, 1.0 w/w % milled seed.
Setting [17] is: Experiment 6, wet milling study, after milling.
The mark [18] stands for this setting: Experiment 6, wet milling study, before milling.
[19] abbreviates: Experiment 7, effect of scale, 3 g scale.
Where [20] appears, read: Experiment 8, effect of scale, 10 g scale.

Values after ≈ are worked out from the molar mass of the structure shown.

The source of these data is patent publication US20240368185A1, “MACROCYCLIC AZOLOPYRIDINES” (Fulcrum Therapeutics, Inc., priority 2021, published 2024).

As to “(S)-12-fluoro-4-(2-methylpyridin-3-yl)-7a,8,13,14-tetrahydro-7H-[1,2,4]triazolo[4′,3′:1,6]pyrido[3,2-b]benzofuro[4,3-fg][1,4]oxazonine [Form 10-A]”, the “DVS reversable total mass change” value in data set [1] was “about 1.4 wt. %”.

For the molecule “(S)-12-fluoro-4-(2-methylpyridin-3-yl)-7a,8,13,14-tetrahydro-7H-[1,2,4]triazolo[4′,3′:1,6]pyrido[3,2-b]benzofuro[4,3-fg][1,4]oxazonine [Form 7-A]”, the “stability of salt in water slurry” value in data set [2] was “disproportionated”.

Regarding `Cc1ncccc1-c1cc2c(n3cnnc13)NCc1c(F)ccc3c1C(CO3)CO2` (stereo in doubt) [Form H, (S)-12-fluoro-4-(2-methylpyridin-3-yl)-7a,8,13,14-tetrahydro-7H-[1,2,4]triazolo[4′,3′:1,6]pyrido[3,2-b]benzofuro[4,3-fg][1,4]oxazonine], the “DVS reversable total mass change” value in data set [1] is “about 7.6 wt. %”.

“(S)-12-fluoro-4-(2-methylpyridin-3-yl)-7a,8,13,14-tetrahydro-7H-[1,2,4]triazolo[4′,3′:1,6]pyrido[3,2-b]benzofuro[4,3-fg][1,4]oxazonine [Form 13-A]”: the “DVS reversable total mass change” value in [1] is “about 0.97 wt. %”.

With “(S)-12-fluoro-4-(2-methylpyridin-3-yl)-7a,8,13,14-tetrahydro-7H-[1,2,4]triazolo[4′,3′:1,6]pyrido[3,2-b]benzofuro[4,3-fg][1,4]oxazonine [Form 5-A]”, the “DVS reversable total mass change” value in data set [1] is “about 3.1 wt. %”.

For the molecule “(S)-12-fluoro-4-(2-methylpyridin-3-yl)-7a,8,13,14-tetrahydro-7H-[1,2,4]triazolo[4′,3′:1,6]pyrido[3,2-b]benzofuro[4,3-fg][1,4]oxazonine [Benzenesulfonic acid (1)]”, the “XRPD Form humidity” value in data set [3] (slurry solvent EtOAc) and in data set [3] (slurry solvent EtOH) was “Am” throughout.

With `Cc1ncccc1-c1cc2c(n3cnnc13)NCc1c(F)ccc3c1C(CO3)CO2` (stereo in doubt) [Form E, (S)-12-fluoro-4-(2-methylpyridin-3-yl)-7a,8,13,14-tetrahydro-7H-[1,2,4]triazolo[4′,3′:1,6]pyrido[3,2-b]benzofuro[4,3-fg][1,4]oxazonine], the “DVS reversable total mass change” value in [1] is “about 10.3 wt. %”.

With “(S)-12-fluoro-4-(2-methylpyridin-3-yl)-7a,8,13,14-tetrahydro-7H-[1,2,4]triazolo[4′,3′:1,6]pyrido[3,2-b]benzofuro[4,3-fg][1,4]oxazonine [Form 8-B]”, the “DVS reversable total mass change” value in data set [1] was “about 0.82 wt. %”.

For the molecule `Cc1ncccc1-c1cc2c(n3cnnc13)NCc1c(F)ccc3c1C(CO3)CO2` (stereo in doubt) [Form P, (S)-12-fluoro-4-(2-methylpyridin-3-yl)-7a,8,13,14-tetrahydro-7H-[1,2,4]triazolo[4′,3′:1,6]pyrido[3,2-b]benzofuro[4,3-fg][1,4]oxazonine], in data set [4], the “crystallinity and solid form purity after wet milling” value is “maintained crystallinity and solid form purity”. Besides, the values for the solubility in the data set “physchem [5]”, in “physchem [6]” and in “physchem [7]” were 167 to 333 mg/mL (≈ 414 to 825 mM), 56.7 mg/mL (≈ 140 mM) and over 10 mg/mL, respectively. For the same molecule, the “DVS reversable total mass change” value in data set [1] is reported as “about 0.53 wt. %”. For the same molecule, the figures for the Particle Size Distribution D(10) in data set [8] (setting [10]) and in data set [8] (setting [11]) were 37.2 µm and 23.4 µm, respectively. Further, the figures for the Particle Size Distribution D(50) in data set [8] (setting [10]) and in data set [8] (setting [11]) were 115 µm and 126 µm, respectively. Besides, the Particle Size Distribution D(90) stood at 196 µm in data set [8] (setting [10]) and 634 µm in [8] (setting [11]). Also, the “Particle Size Distribution (PSD) D10” value is 19 μm in data set [8] (setting [12]); 17 μm in data set [8] (setting [13]); 7 μm in data set [8] (setting [14]); 28 μm in data set [8] (setting [15]); 15 μm in [8] (setting [16]); 11 μm in data set [8] (setting [17]). The “Particle Size Distribution (PSD) D10” value in data set [8] (setting [18]) amounted to 32 μm; in data set [8] (setting [19]), 11 μm; in data set [8] (setting [20]), 11 μm. Besides, the “Particle Size Distribution (PSD) D50” value is listed as 100 μm in data set [8] (setting [12]); 93 μm in data set [8] (setting [13]); 31 μm in data set [8] (setting [14]); 90 μm in data set [8] (setting [15]); 82 μm in data set [8] (setting [16]); 37 μm in [8] (setting [17]). Further, the figures for the “Particle Size Distribution (PSD) D50” value in [8] (setting [18]), in data set [8] (setting [19]) and in [8] (setting [20]) were 199 μm, 48 μm and 45 μm, respectively. The “Particle Size Distribution (PSD) D90” value came out at 213 μm in data set [8] (setting [12]); 187 μm in data set [8] (setting [13]); 83 μm in data set [8] (setting [14]); 171 μm in data set [8] (setting [15]); 164 μm in data set [8] (setting [16]); 95 μm in [8] (setting [17]). For the same molecule, the “Particle Size Distribution (PSD) D90” value in [8] (setting [18]) amounted to 372 μm; in data set [8] (setting [19]), 113 μm; in data set [8] (setting [20]) it was 121 μm. The D10 in [8] (starting material as received) worked out at 1.99 μm. In data set [8] (starting material as received), this molecule displayed a D50 of 3.33 μm. In addition, in [8] (starting material as received), the D90 came to 5.35 μm. For the same molecule, the “purity after slurry (potential degradation)” value in data set [9] was 99.9%.
